Source: ChEMBL document CHEMBL5107949, “Design, synthesis, and antibacterial activity of N-(trifluoromethyl)phenyl substituted pyrazole derivatives” (RSC Med Chem, 2021)
Converted amounts (≈) assume the structure as drawn. The source made the active and inactive calls. The calls are words filed in the database; no cut-off is given here.

Columns and labels:
Enterococcus faecalis [1] = assay: Antibacterial activity against Enterococcus faecalis clinical isolate 1088051 assessed as inhibition of bacterial growth by CLSI protocol based broth microdilution method; format: functional
Enterococcus faecalis [2] = assay: Antibacterial activity against Enterococcus faecalis clinical isolate 1091563 assessed as inhibition of bacterial growth by CLSI protocol based broth microdilution method; format: functional
Enterococcus faecalis [3] = assay: Antibacterial activity against Enterococcus faecalis clinical isolate 1091720 assessed as inhibition of bacterial growth by CLSI protocol based broth microdilution method; format: functional
Enterococcus faecalis [4] = assay: Antibacterial activity against Enterococcus faecalis clinical isolate 1094112 assessed as inhibition of bacterial growth by CLSI protocol based broth microdilution method; format: functional
Enterococcus faecalis [5] = assay: Antibacterial activity against Enterococcus faecalis clinical isolate 1100440 assessed as inhibition of bacterial growth by CLSI protocol based broth microdilution method; format: functional
Enterococcus faecium [6] = assay: Antibacterial activity against Enterococcus faecium clinical isolate 1088168 assessed as inhibition of bacterial growth by CLSI protocol based broth microdilution method; format: functional
Enterococcus faecium [7] = assay: Antibacterial activity against Enterococcus faecium clinical isolate 1088228 assessed as inhibition of bacterial growth by CLSI protocol based broth microdilution method; format: functional
Enterococcus faecium [8] = assay: Antibacterial activity against Enterococcus faecium clinical isolate 1088925 assessed as inhibition of bacterial growth by CLSI protocol based broth microdilution method; format: functional
Enterococcus faecium [9] = assay: Antibacterial activity against Enterococcus faecium clinical isolate 1089544 assessed as inhibition of bacterial growth by CLSI protocol based broth microdilution method; format: functional
Enterococcus faecium [10] = assay: Antibacterial activity against Enterococcus faecium clinical isolate 1091282 assessed as inhibition of bacterial growth by CLSI protocol based broth microdilution method; format: functional
Staphylococcus aureus [11] = assay: Antibacterial activity against Staphylococcus aureus clinical isolate 1088060 assessed as inhibition of bacterial growth by CLSI protocol based broth microdilution method; format: functional
Staphylococcus aureus [12] = assay: Antibacterial activity against Staphylococcus aureus clinical isolate 1088105 assessed as inhibition of bacterial growth by CLSI protocol based broth microdilution method; format: functional
Staphylococcus aureus [13] = assay: Antibacterial activity against Staphylococcus aureus clinical isolate 1088626 assessed as inhibition of bacterial growth by CLSI protocol based broth microdilution method; format: functional
Staphylococcus aureus [14] = assay: Antibacterial activity against Staphylococcus aureus clinical isolate 1088064 assessed as inhibition of bacterial growth by CLSI protocol based broth microdilution method; format: functional
Staphylococcus aureus [15] = assay: Antibacterial activity against Staphylococcus aureus clinical isolate 1088610 assessed as inhibition of bacterial growth by CLSI protocol based broth microdilution method; format: functional
Staphylococcus aureus [16] = assay: Antibacterial activity against Staphylococcus aureus clinical isolate 1088888 assessed as inhibition of bacterial growth by CLSI protocol based broth microdilution method; format: functional
Staphylococcus aureus [17] = assay: Antibacterial activity against Staphylococcus aureus clinical isolate 1089106 assessed as inhibition of bacterial growth by CLSI protocol based broth microdilution method; format: functional
Staphylococcus aureus [18] = assay: Inhibition of DNA synthesis in Staphylococcus aureus ATCC 29213 at 8 times MIC preincubated for 30 mins followed by [3H]-thymidine and measured after 30 mins by [3H]-thymidine incorporation based beta scintillation counter analysis; format: functional; details: time 60 min; 1 h
Staphylococcus aureus [19] = assay: Antibacterial activity against antibiotic susceptible Staphylococcus aureus ATCC 25923 assessed as inhibition of bacterial growth by CLSI protocol based broth microdilution method; format: functional
Staphylococcus aureus [20] = assay: Antibacterial activity against antibiotic resistant Staphylococcus aureus BAA-2312 assessed as inhibition of bacterial growth by CLSI protocol based broth microdilution method; format: functional
Staphylococcus aureus [21] = assay: Antibacterial activity against antibiotic resistant Staphylococcus aureus ATCC 700699 assessed as inhibition of bacterial growth by CLSI protocol based broth microdilution method; format: functional
[22] = system: Staphylococcus epidermidis; assay: Antibacterial activity against antibiotic resistant Staphylococcus epidermidis ATCC 700296 assessed as inhibition of bacterial growth by CLSI protocol based broth microdilution method; format: functional
Bacillus subtilis = assay: Antibacterial activity against antibiotic resistant Bacillus subtilis ATCC 6623 assessed as inhibition of bacterial growth by CLSI protocol based broth microdilution method; format: functional
Enterococcus faecalis [23] = assay: Antibacterial activity against antibiotic susceptible Enterococcus faecalis ATCC 29212 assessed as inhibition of bacterial growth by CLSI protocol based broth microdilution method; format: functional
Enterococcus faecium [24] = assay: Antibacterial activity against vancomycin resistant Enterococcus faecium ATCC 700221 assessed as inhibition of bacterial growth by CLSI protocol based broth microdilution method; format: functional
Enterococcus faecalis [25] = assay: Anti-biofilm activity against Enterococcus faecalis ATCC 29212 assessed as eradication of biofilm formation incubated for 24 hrs by Calgary biofilm device assay; format: functional
Staphylococcus aureus [26] = assay: Anti-biofilm activity against Staphylococcus aureus ATCC 25923 assessed as eradication of biofilm formation incubated for 24 hrs by Calgary biofilm device assay; format: functional
Staphylococcus aureus [27] = assay: Bactericidal activity against Staphylococcus aureus ATCC 700699 assessed as bacteria elimination at 4 times MIC and measured after 10 hrs by time-kill assay; format: functional, organism-based
Enterococcus faecalis [28] = assay: Anti-biofilm activity against Enterococcus faecalis ATCC 29212 assessed as minimum bactericidal concentration incubated for 24 hrs by Calgary biofilm device assay; details: ATCC 29212, 24 h
Staphylococcus aureus [29] = assay: Antibacterial activity against Staphylococcus aureus ATCC 25923 assessed as minimum bactericidal concentration incubated for 24 hrs by Calgary biofilm device assay; details: ATCC 25923, 24 h
Staphylococcus aureus [30] = assay: Inhibition of lipid synthesis in Staphylococcus aureus ATCC 29213 at 8 times MIC preincubated for 30 mins followed by [3H]-glycerol and measured after 50 mins by [3H]-glycerol incorporation based beta scintillation counter analysis; format: functional; details: time 80 min; 1.333 h
Staphylococcus aureus [31] = assay: Antibacterial activity against antibiotic resistant Staphylococcus aureus ATCC 33591 assessed as inhibition of bacterial growth by CLSI protocol based broth microdilution method; format: functional
Staphylococcus aureus [32] = assay: Antibacterial activity against antibiotic resistant Staphylococcus aureus ATCC 33592 assessed as inhibition of bacterial growth by CLSI protocol based broth microdilution method; format: functional
[33] = Cytotoxicity against human HEK293 cells reduction in cell viability incubated for 24 hrs by resazurin cell viability assay; format: toxicity, cell-based
Enterococcus faecalis [34] = assay: Inhibition of biofilm formation in Enterococcus faecalis ATCC 29212 at 12.5 ug/ml incubated for 24 hrs by Calgary biofilm device assay; format: functional; details: dose 12.5 µg/ml
Enterococcus faecalis [35] = assay: Anti-biofilm activity against Enterococcus faecalis ATCC 29212 assessed as biofilm eradication at 3.125 to 12.5 ug/ml incubated for 24 hrs by Calgary biofilm device assay; format: functional, organism-based; details: dose 3.125-12.5 µg/ml
Enterococcus faecalis [36] = assay: Inhibition of biofilm formation in Enterococcus faecalis ATCC 29212 at 6.25 ug/ml incubated for 24 hrs by Calgary biofilm device assay; format: functional; details: dose 6.25 µg/ml
Staphylococcus aureus [37] = assay: Inhibition of biofilm formation in Staphylococcus aureus ATCC 25923 at 12.5 ug/ml incubated for 24 hrs by Calgary biofilm device assay; format: functional
Staphylococcus aureus [38] = assay: Inhibition of biofilm formation in Staphylococcus aureus ATCC 25923 at 3.125 to 12.5 ug/ml incubated for 24 hrs by Calgary biofilm device assay; format: functional, organism-based; details: dose 3.125-12.5 µg/ml, DDE = dose-dependent effect
Staphylococcus aureus [39] = assay: Bactericidal activity against Staphylococcus aureus ATCC 700699 assessed as bacteria elimination at 4 times MIC and measured after 6 hrs by time-kill assay; format: functional
Staphylococcus aureus [40] = assay: Bactericidal activity against Staphylococcus aureus ATCC 700699 persisters assessed as log reduction in colony forming unit at 16 times MIC after 4 hrs by colony counting method; format: functional

Row | SMILES | MIC (Enterococcus faecalis [1]) [µg/mL] | MIC (Enterococcus faecalis [2]) [µg/mL] | MIC (Enterococcus faecalis [3]) [µg/mL] | MIC (Enterococcus faecalis [4]) [µg/mL] | MIC (Enterococcus faecalis [5]) [µg/mL] | MIC (Enterococcus faecium [6]) [µg/mL] | MIC (Enterococcus faecium [7]) [µg/mL] | MIC (Enterococcus faecium [8]) [µg/mL] | MIC (Enterococcus faecium [9]) [µg/mL] | MIC (Enterococcus faecium [10]) [µg/mL] | MIC (Staphylococcus aureus [19]) [µg/mL] | MIC (Staphylococcus aureus [20]) [µg/mL] | MIC (Staphylococcus aureus [21]) [µg/mL] | MIC [22] [µg/mL] | MIC (Bacillus subtilis) [µg/mL] | MIC (Enterococcus faecalis [23]) [µg/mL] | MIC (Enterococcus faecium [24]) [µg/mL] | MBEC (Enterococcus faecalis [25]) [µg/mL] | MBC (Enterococcus faecalis [28]) [µg/mL] | MBC (Staphylococcus aureus [29]) [µg/mL] | further results
1 | C[C@@H](O)[C@H]1C(=O)N2C(C(=O)O)=C(S[C@@H]3CN[C@H](C(=O)N(C)C)C3)[C@H](C)[C@H]12 [MEROPENEM] | 2 (≈ 5.22 µM) | 2 (≈ 5.22 µM) | 8 (≈ 20.9 µM) | 8 (≈ 20.9 µM) | 4 (≈ 10.4 µM) | > 128 | > 128 | > 128 | > 128 | > 128 | – | – | – | – | – | – | – | – | – | – | MIC (Staphylococcus aureus [11]): 0.06 µg/mL (≈ 0.156 µM); MIC (Staphylococcus aureus [12]): 0.12 µg/mL (≈ 0.313 µM); MIC (Staphylococcus aureus [13]): 0.06 µg/mL (≈ 0.156 µM); MIC (Staphylococcus aureus [14]): 4 µg/mL (≈ 10.4 µM); MIC (Staphylococcus aureus [15]): 4 µg/mL (≈ 10.4 µM); MIC (Staphylococcus aureus [16]): 8 µg/mL (≈ 20.9 µM); MIC (Staphylococcus aureus [17]): 2 µg/mL (≈ 5.22 µM)
2 | O=C(O)c1cn(C2CC2)c2cc(N3CCNCC3)c(F)cc2c1=O [CIPROFLOXACIN] | – | – | – | – | – | – | – | – | – | – | – | – | – | – | – | – | – | – | – | – | inhibition (INH) (Staphylococcus aureus [18]): 86.2%
3 | CN[C@H](CC(C)C)C(=O)N[C@H]1C(=O)N[C@@H](CC(N)=O)C(=O)N[C@H]2C(=O)N[C@H]3C(=O)N[C@H](C(=O)N[C@H](C(=O)O)c4cc(O)cc(O)c4-c4cc3ccc4O)[C@H](O)c3ccc(c(Cl)c3)Oc3cc2cc(c3O[C@@H]2O[C@H](CO)[C@@H](O)[C@H](O)[C@H]2O[C@H]2C[C@](C)(N)[C@H](O)[C@H](C)O2)Oc2ccc(cc2Cl)[C@H]1O [VANCOMYCIN] | > 32 | > 32 | > 32 | > 32 | > 32 | > 32 | > 32 | > 32 | > 32 | > 32 | 0.78 (≈ 0.538 µM) | 0.78 (≈ 0.538 µM) | 3.12 (≈ 2.15 µM) | 3.12 (≈ 2.15 µM) | 0.39 (≈ 0.269 µM) | 3.12 (≈ 2.15 µM) | > 50 | >50 | 25 (≈ 17.3 µM) | 6.25 (≈ 4.31 µM) | MBEC (Staphylococcus aureus [26]; Staphylococcus aureus, ATCC 25923): > 50 µg/mL; Activity (Staphylococcus aureus [27]): Active
4 | C/C=C/C/C=C/CCC(=O)[C@H]1O[C@H]1C(N)=O [CERULENIN] | – | – | – | – | – | – | – | – | – | – | – | – | – | – | – | – | – | – | – | – | inhibition (INH) (Staphylococcus aureus [30]): 71.9%
5 | Cc1cc(NCc2cn(-c3ccc(C(F)(F)F)cc3)nc2-c2ccc(C(=O)O)cc2)ccc1Br | – | – | – | – | – | – | – | – | – | – | 3.12 (≈ 5.88 µM) | 3.12 (≈ 5.88 µM) | 1.56 (≈ 2.94 µM) | 12.5 (≈ 23.6 µM) | 1.56 (≈ 2.94 µM) | 6.25 (≈ 11.8 µM) | 3.12 (≈ 5.88 µM) | 25 | 12.5 (≈ 23.6 µM) | 12.5 (≈ 23.6 µM) | MIC (Staphylococcus aureus [31]): 6.25 µg/mL (≈ 11.8 µM); MIC (Staphylococcus aureus [32]): 3.12 µg/mL (≈ 5.88 µM); IC50 at 24 h [33]: > 12 µg/mL; inhibition (Enterococcus faecalis [34]): Active; Activity (Enterococcus faecalis [35]): Active; inhibition (Enterococcus faecalis [36]): Active; inhibition at 12.5 µg/mL (Staphylococcus aureus [37]): > 90%; inhibition (Staphylococcus aureus [38]): Dde; MBEC (Staphylococcus aureus [26]): 12.5 µg/mL; Activity (Staphylococcus aureus [39]): >99.9%; log(activity) (Staphylococcus aureus [40]): >2
